Where “and” joins values, the source holds several entries; their conditions need not be identical. Equal entries are not always repeated.

Series [1] in a line: Minimum concentration killing the cell monolayer (MTD) in the plaque reduction test. It is filed as cell-based, African Green Monkey. As to conditions: monkey; minimum concentration which killed the cell monolayer; Vero cells, 37°C for 6 days. As for the experimental part: (§1) Vero (African Green Monkey Kidney) cells were grown to confluence in 6 well multidishes, each well being 3.5 cm in diameter. The cells were incubated with Herpes simplex type 1 virus (HFEM strain) and overlaid with 0.5 ml of 0.9% agarose (w/v) in maintenance medium containing the test compound at a range of concentrations from 50 µg/ml in half-log dilution steps. The virus infected cultures were then incubated at 37°C for 6 days before fixing in 4% formaldehyde solution and staining with carbolfuchsin. The dishes were then examined to find what concentration of test compound causing a 50% reduction in the number of virus plaques formed (PDD50 value) and the minimum concentration of test compound which killed the cell monolayer, leaving a clear zone devoid of cells and virus plaques (MTD).

The test system of series [2] is Herpes simplex type 1 virus (HFEM strain). The series can be described thus: Plaque reduction test in virus-infected Vero cell monolayers. As to conditions: Human alphaherpesvirus 1, 144 h, concentration causing a 50% reduction in the number of virus plaques, Vero cells, 37°C for 6 days, read-out: PDD50 (the source's name). It is filed as cell-based. As for the experimental part: as §1
In general terms: Plaque reduction counts the foci of infection that form in a cell layer.

For the compound `CCCC(=O)OC[C@H]1O[C@@H](n2cc(/C=C/Br)c(=O)[nH]c2=O)C[C@@H]1OC(=O)CCC` [Example 1, E-5-(2-Bromovinyl)-3',5'-di-O-butyryl-2'-deoxyuridine], the MCC at 144 h in series [1] was above 100 µg/mL. In addition, the IC50 in series [2] is 0.2 µg/mL and 420 nM.

Regarding `CCCCC(=O)OC[C@H]1O[C@@H](n2cc(/C=C/Br)c(=O)[nH]c2=O)C[C@@H]1OC(=O)CCCC` [Example 2, E-5-(2-Bromovinyl)-3',5'-di-O-valeryl-2'-deoxyuridine], the MCC at 144 h in series [1] was above 100 µg/mL. Moreover, the IC50 in series [2] was 0.2 µg/mL and 400 nM.

With `CC(=O)O[C@H]1C[C@H](n2cc(/C=C/Br)c(=O)[nH]c2=O)O[C@@H]1CO` [Example 6, 3'-O-Acetyl-E-5-(2-bromovinyl)-2'-deoxyuridine], the MCC at 144 h in series [1] is above 100 µg/mL. The IC50 in series [2] was 0.41 µg/mL and 1.1 µM.

In series [1], `CCCCC(=O)O[C@H]1C[C@H](n2cc(/C=C/Br)c(=O)[nH]c2=O)O[C@@H]1CO` [Example 7, E-5-(2-Bromovinyl)-3'-O-valeryl-2'-deoxyuridine] showed an MCC at 144 h above 100 µg/mL. Further, the IC50 in series [2] was 0.18 µg/mL and 430 nM.

`CC(=O)OC[C@H]1O[C@@H](n2cc(/C=C/Br)c(=O)[nH]c2=O)C[C@@H]1O` [Example 8, 5'-O-Acetyl-E-5-(2-bromovinyl)-2'-deoxyuridine] displayed an MCC at 144 h in series [1] above 100 µg/mL. The IC50 in series [2] is 0.32 µg/mL and 850 nM.

With `CCCCC(=O)OC[C@H]1O[C@@H](n2cc(/C=C/Br)c(=O)[nH]c2=O)C[C@@H]1O` [Example 9, E-5-(2-Bromovinyl)-5'-O-valeryl-2'-deoxyuridine], the MCC at 144 h in series [1] is above 100 µg/mL. Besides, in series [2], the IC50 was 0.16 µg/mL and 380 nM.

Turning to `O=C(O)CCC(=O)OC[C@H]1O[C@@H](n2cc(/C=C/Br)c(=O)[nH]c2=O)C[C@@H]1OC(=O)CCC(=O)O` [Example 10, E-5-(2-Bromovinyl)-3'.5'-di-O-(3-carboxypropionyl)-2'-deoxyuridine monohydrate], the MCC at 144 h in series [1] is above 100 µg/mL. For the same compound, the IC50 in series [2] was 55 µg/mL and 103 µM.

Regarding `O=C(O)CCC(=O)O[C@H]1C[C@H](n2cc(/C=C/Br)c(=O)[nH]c2=O)O[C@@H]1CO` [Example 11b, E-5-(2-bromovinyl)-3'-O-(3-carboxypropionyl)-2'-deoxyuridine], the MCC at 144 h in series [1] was above 100 µg/mL. For the same compound, the IC50 in series [2] was 0.18 µg/mL and 400 nM.

`O=C(O)CCC(=O)OC[C@H]1O[C@@H](n2cc(/C=C/Br)c(=O)[nH]c2=O)C[C@@H]1O` [Example 12, E-5-(2-bromovinyl)-5'-O-(3-carboxypropionyl)-2'-deoxyuridine]: the MCC at 144 h in series [1] was above 100 µg/mL. For the same compound, in series [2], the IC50 was 0.35 µg/mL and 800 nM.

Regarding `CC(C)(C)C(=O)OC[C@H]1O[C@@H](n2cc(/C=C/Br)c(=O)[nH]c2=O)C[C@@H]1O` [Example 13, E-5-(2-Bromoyinyl)-5'-O-pivaloyl-2'-deoxyuridine], in series [1], the MCC at 144 h was above 100 µg/mL. Also, the IC50 in series [2] is 0.52 µg/mL and 1.3 µM.

Turning to `CC(C)(C)C(=O)OC[C@H]1O[C@@H](n2cc(/C=C/Br)c(=O)[nH]c2=O)C[C@@H]1OC(=O)C(C)(C)C` [Example 14, E-5-(2-bromovinyl)-3',5'-di-0-pivaloyl-2'-deoxyuridine], in series [1], the MCC at 144 h was above 100 µg/mL. Further, in series [2], the IC50 is 8.5 µg/mL and 17 µM.

Values taken from patent EP0061283A1, “Antiviral agents, their preparation and use” (BEECHAM GROUP PLC, priority 1981, dated 1982).
